{"source": "patent US6518221B1", "about": "“Plant growth regulator and method for using same” (Wilbur-Ellis Company, priority 2002, dated 2003)", "assay_type_in_all_cases": "in vivo", "key": {"[1]": {"tested_on": "Stoneville cotton variety", "test": "Field study in Mississippi on Stoneville cotton: fruit (boll) set", "conditions": "10 grams per acre, applied once on July 8th, with 5.0% calcium and 1.25% zinc", "protocol": "A field study was conducted in the State of Mississippi on a Stoneville cotton variety, in which the physiological characteristics of plants treated with the plant growth regulator of the present invention (a mixture of CCC, WSCP, and CC), were compared to the characteristics of untreated plants, or “checks”, and the characteristics of plants treated with PIX.\nThe formulation of the present invention used in Example 2 was as follows: the ratio of WSCP to CCC was reduced to 2.7:1, and the ratio of CC (Choline Chloride) to CCC was 0.6:1. Also added to the formulation was 5.0% calcium and 1.25% zinc.\nThe rate of PIX application was 10 grams per acre, applied once on July 8th of the study year. The rate and timing of this application was consistent with the manufacturer's label recommendation. The rate of application of the plant growth regulator of the present invention was 2.5 grams per acre, applied once on June 28th and again on July 18th. As with Example 1, the formulations of PIX used in Example 2, included 5.0% calcium and 1.25% zinc.\nThe physiological characteristics under study determine the effectiveness of the chemical products on fruit, or boll, set. The first fruiting position on a reproductive branch is the most important plant feature that affects expected plant yield. Consequently, the higher the percentage of fruit set at the first fruiting position the higher the fruit yield potential."}, "cotton": {"tested_on": "cotton", "test": "Field trials in Greece: plant growth regulating effects (plant height)", "conditions": "20.0 gm/Ha", "excerpt": "Field trials were established in the country of Greece to determine the plant growth regulating effects of several products, including the chemical formulation of the present invention. The particular formulation of the present invention used in these trials, was as follows: 1.0 parts CCC; 2.7 parts WSCP; 0.6 parts CC; 27 parts Calcium; and, 6.75 parts Zinc (parts per weight). All of the chemical applications were applied at the same time, and there were three replications at each trial site."}, "MAXXA cotton": {"tested_on": "MAXXA cotton", "test": "Study on MAXXA cotton: effects on plant growth and development", "conditions": "10 gm/A", "protocol": "A study was conducted on MAXXA cotton to determine the effects of Mepiquat Chloride and the combination of (CCC) chlormequat chloride/WSCP on plant growth and development.\nIn this example, the amount of WSCP used in each chemical treatment was constant, and the amount of CCC varied from 2.5 to 5.0 grams/acre. The corresponding ratios of WSCP and CCC were as follows: at the 2.5 gram/acre rate the ratio of WSCP to CCC was 30:1; at the 5.0 gram/acre rate the ratio of WSCP to CCC was 15:1. It should also be noted that 5.0% calcium and 1.25% zinc were also added to each of the mixtures."}}}
{"smiles": "C[N+]1(C)CCCCC1.[Cl-]", "note": "[Mepiquat Chloride, N,N-dimethylpiperidinium chloride]", "values": [{"measurement": "First Fruiting Branch", "setting": "[1]", "result": 6}, {"measurement": "Percentage Of First Fruiting Positions (Nodes 6-13)", "setting": "[1]", "result": 76.3, "unit": "%"}, {"measurement": "Total Percentage Of Fruit Set (Nodes 6-13)", "setting": "[1]", "result": 65.0, "unit": "%"}, {"measurement": "Plant Height", "setting": "cotton; Site 1", "result": 10.00, "unit": "Cm"}, {"measurement": "Plant Height", "setting": "cotton; Site 2", "result": 27.33, "unit": "Cm"}, {"measurement": "Plant Height", "setting": "cotton; Site 3", "result": 7.78, "unit": "Cm"}, {"measurement": "Average Bottom 5 FPB (First Position Bolls As A Percentage)", "setting": "MAXXA cotton", "result": 60.0, "unit": "Percentage"}, {"measurement": "Average Fruiting Branches", "setting": "MAXXA cotton", "result": 15.7}, {"measurement": "Average Nodes", "setting": "MAXXA cotton", "result": 21.7}, {"measurement": "Average Plant Height", "setting": "MAXXA cotton", "result": "35.9″"}, {"measurement": "Average Top 5 FPB (First Position Bolls As A Percentage)", "setting": "MAXXA cotton", "result": 43.0, "unit": "Percentage"}, {"measurement": "Average Vegetative Nodes", "setting": "MAXXA cotton", "result": 6.1}]}
